# Legend:
# [1] = test system: neonatal human dermal fibroblasts (ATCC PCS-201-010); assay: Cytotoxic activity, fibroblast proliferation (sulforhodamine B); type: cell-based
# Experimental: Passage for normal neonatal human dermal fibroblasts (ATCC PCS-201-010, lot 58243223) were grown in DMEM with 5 % calf serum (Hyclone). For the experiment, cells were plated in DMEM/5 % serum at 2,000 cells/well in 96 well plates (plate 598) and were exposed to test materials for 96 h. MAP and bFGF were used as the positive controls and water, 1, 0.5, and 0.25 % DMSO were used as the negative controls. Plate growth was stopped and cells were stained with a sulforhodamine B dye. The dye was then dissolved and a colorimetric signal proportional to total cell/protein count was quantified with the BioRad microplate spectrophotometer 3550-UV at 570 nm with background subtraction at 660 nm and analyzed with Microplate Manager v.2 software for Macintosh (BioRad). Error bars represent standard errors of the mean (SEM). P values representing statistical significance were calculated using the t test.
# leukemia cell lines = assay: NCI-60 DTP human tumor cell line screening, leukemia panel; type: cell-based; conditions: mean for leukemia cell line panel, read-out: GI 50 mean value
# K-562 = assay: NCI-60 DTP human tumor cell line screening; type: cell-based
# MOLT-4 = assay: NCI-60 DTP human tumor cell line screening; type: cell-based; conditions: Leukemia MOLT-4
# SR = assay: NCI-60 DTP human tumor cell line screening; type: cell-based; conditions: Leukemia SR
# A549/ATCC = assay: NCI-60 DTP human tumor cell line screening; type: cell-based; conditions: Non-small cell lung cancer A549/ATCC
# EKVX = assay: NCI-60 DTP human tumor cell line screening; type: cell-based; conditions: Non-small cell lung cancer EKVX
# HOP-62 = assay: NCI-60 DTP human tumor cell line screening; type: cell-based; conditions: Non-small cell lung cancer HOP-62
# HOP-92 = assay: NCI-60 DTP human tumor cell line screening; type: cell-based; conditions: Non-small cell lung cancer HOP-92
# NCI-H226 = assay: NCI-60 DTP human tumor cell line screening; type: cell-based; conditions: Non-small cell lung cancer NCI-H226
# NCI-H23 = assay: NCI-60 DTP human tumor cell line screening; type: cell-based; conditions: Non-small cell lung cancer NCI-H23
# NCI-H322M = assay: NCI-60 DTP human tumor cell line screening; type: cell-based; conditions: Non-small cell lung cancer NCI-H322M
# NCI-H522 = assay: NCI-60 DTP human tumor cell line screening; type: cell-based; conditions: Non-small cell lung cancer NCI-H522
# KM12 = assay: NCI-60 DTP human tumor cell line screening; type: cell-based
# SF-268 = assay: NCI-60 DTP human tumor cell line screening; type: cell-based; conditions: CNS cancer SF-268
# SF-539 = assay: NCI-60 DTP human tumor cell line screening; type: cell-based; conditions: CNS cancer SF-539
# M-14 = assay: NCI-60 DTP human tumor cell line screening; type: cell-based; conditions: Melanoma M-14
# UACC-257 = assay: NCI-60 DTP human tumor cell line screening; type: cell-based; conditions: Melanoma UACC-257
# OVCAR-4 = assay: NCI-60 DTP human tumor cell line screening; type: cell-based; conditions: Ovarian cancer OVCAR-4
# OVCAR-5 = assay: NCI-60 DTP human tumor cell line screening; type: cell-based; conditions: Ovarian cancer OVCAR-5
# SK-OV-3 = assay: NCI-60 DTP human tumor cell line screening; type: cell-based; conditions: Ovarian cancer SK-OV-3
# 786-0 = assay: NCI-60 DTP human tumor cell line screening; type: cell-based; conditions: Renal cancer 786-0
# SN 12C = assay: NCI-60 DTP human tumor cell line screening; type: cell-based; conditions: Renal cancer SN 12C
# TK-10 = assay: NCI-60 DTP human tumor cell line screening; type: cell-based
# PC-3 = assay: NCI-60 DTP human tumor cell line screening; type: cell-based; conditions: Prostate cancer PC-3
# MDA-MB-231/ATCC = assay: NCI-60 DTP human tumor cell line screening; type: cell-based; conditions: Breast cancer MDA-MB-231/ATCC
# SK-MEL-5 = assay: NCI-60 DTP human tumor cell line screening
# P. acnes ATCC 11827 = assay: Antibacterial activity, MIC in broth serial dilution
# Experimental: Compounds were tested at serial dilutions in bacterial broth starting at 100 μg/cm^3 (final concentration). P. acnes (ATCC 11827, lot 419697) was grown in thioglycollate nutrient broth (Hardy Diagnostics K29) for 72 h at 33 °C, then inoculated at the density equivalent to 0.5 McFarland standard and incubated with the test materials for another 72 h in an anaerobic environment. […] At the end of the incubation the MIC was assessed optically as the lowest concentration of a test material which caused no bacteria growth [34]. This optical assessment was further confirmed by measuring the absorbance at 655 nm with the BioRad 3550-UV microplate reader. The MIC was defined as at least 50 % inhibition of the increase of OD.
smiles,measurement,setting,value
"NC(=NS(=O)(=O)c1ccccc1Cl)c1ccc2ccccc2n1 [Compound 15, N′-(2-Chlorophenylsulfonyl)quinoline-2-carboximidamide]",growth inhibitory activity,[1]; 6.25 μg/cm^3,70%
same,cytotoxic activity on fibroblast proliferation,"[1]; 96 h, 6.25–100 μg/cm^3",strongly cytotoxic
same,GI50,leukemia cell lines,3.52 µM
same,inhibition at 10 µM,"K-562; Homo sapiens, K562, read-out: Growth inhibition ΔGI",35.9%
same,GI50,"K-562; Homo sapiens, K562, Leukemia K-562",3.11 µM
same,TGI,K-562; Leukemia K-562,^c (Determined TGI values were >100 μM)
same,GI50,MOLT-4; Homo sapiens,5.91 µM
same,TGI,MOLT-4,^c (Determined TGI values were >100 μM)
same,GI50,SR; Homo sapiens,0.92 µM
same,TGI,SR,21.40 µM
same,GI50,A549/ATCC; Homo sapiens,5.37 µM
same,TGI,A549/ATCC,^c (Determined TGI values were >100 μM)
same,GI50,EKVX; Homo sapiens,8.75 µM
same,TGI,EKVX,^c (Determined TGI values were >100 μM)
same,GI50,HOP-62; Homo sapiens,5.37 µM
same,TGI,HOP-62,^c (Determined TGI values were >100 μM)
same,GI50,HOP-92; Homo sapiens,9.34 µM
same,TGI,HOP-92,90.80 µM
same,GI50,NCI-H226; Homo sapiens,10.8 µM
same,TGI,NCI-H226,^c (Determined TGI values were >100 μM)
same,GI50,NCI-H23; Homo sapiens,5.44 µM
same,TGI,NCI-H23,^c (Determined TGI values were >100 μM)
same,GI50,NCI-H322M; Homo sapiens,5.19 µM
same,TGI,NCI-H322M,^c (Determined TGI values were >100 μM)
same,GI50,NCI-H522; Homo sapiens,2.28 µM
same,TGI,NCI-H522,7.62 µM
same,TGI,KM12; Colon cancer KM12,^c (Determined TGI values were >100 μM)
same,inhibition at 10 µM,"KM12; Homo sapiens, KM12, read-out: Growth inhibition ΔGI",23%
same,GI50,"KM12; Homo sapiens, Colon cancer KM12",3.29 µM
same,TGI,SF-268,^c (Determined TGI values were >100 μM)
same,GI50,SF-268; Homo sapiens,6.79 µM
same,TGI,SF-539,^c (Determined TGI values were >100 μM)
same,GI50,SF-539; Homo sapiens,4.19 µM
same,GI50,"M-14; Homo sapiens, M14",3.61 µM
same,TGI,M-14,^c (Determined TGI values were >100 μM)
same,GI50,UACC-257; Homo sapiens,11.7 µM
same,TGI,UACC-257,^c (Determined TGI values were >100 μM)
same,GI50,OVCAR-4; Homo sapiens,9.15 µM
same,TGI,OVCAR-4,9.53 µM
same,GI50,OVCAR-5; Homo sapiens,7.71 µM
same,TGI,OVCAR-5,^c (Determined TGI values were >100 μM)
same,GI50,SK-OV-3; Homo sapiens,3.93 µM
same,TGI,SK-OV-3,^c (Determined TGI values were >100 μM)
same,GI50,786-0; Homo sapiens,4.94 µM
same,TGI,786-0,^c (Determined TGI values were >100 μM)
same,GI50,"SN 12C; Homo sapiens, SN12C",7.67 µM
same,TGI,SN 12C,^c (Determined TGI values were >100 μM)
same,inhibition at 10 µM,"TK-10; Homo sapiens, TK-10, read-out: Growth inhibition ΔGI",21.7%
same,GI50,"TK-10; Homo sapiens, Renal cancer TK-10",6.02 µM
same,TGI,TK-10; Renal cancer TK-10,7.08 µM
same,GI50,PC-3; Homo sapiens,9.59 µM
same,TGI,PC-3,^c (Determined TGI values were >100 μM)
same,TGI,MDA-MB-231/ATCC,^c (Determined TGI values were >100 μM)
same,GI50,MDA-MB-231/ATCC; Homo sapiens,13 µM
same,GI50,"SK-MEL-5; Homo sapiens, SK-MEL-5",3.31 µM
same,CC50,"SK-MEL-5; Homo sapiens, SK-MEL-5, read-out: LC 50",36.2 µM
same,TGI,SK-MEL-5; Melanoma SK-MEL-5,50.50 µM
same,MIC,"P. acnes ATCC 11827; Cutibacterium acnes, ATCC11827, 72 h, read-out: MIC P. acnes, P. acnes ATCC 11827, 72 h anaerobic",12.5 to 50 µg/mL
same,MIC P. acnes,"P. acnes ATCC 11827; P. acnes ATCC 11827, 72 h anaerobic",12.5 µg/mL
